Reference: patent publication US11850277B2, “Treatment of lower urinary tract epithelium with glucagon like peptide 2” (URIGEN N.A., priority 2017, dated 2023)

Key:
[1] = system: non-tumorigenic primary human bladder epithelial cells (ATCC-PCS-420-010); test: BrdU cell proliferation assay (BrdU incorporation into DNA); type: cell-based; conditions: cells starved 48 hours in low nutrient (0.5%) medium; for DNA synthesis as measured by BrdU incorporation: BrdU added concurrently
Protocol: FIG. 1 presents a histogram plot depicting results from a BrdU cell proliferation assay. Primary human bladder epithelial cells were nutrient starved as indicated and treated with GLP-2 for 24 hours at the indicated concentrations
FIG. 2 presents a histogram plot depicting results from a BrdU cell proliferation assay. Primary human bladder epithelial cells were nutrient starved as indicated and treated with GLP-2 for 48 hours at the indicated concentrations.
URG-801/GLP-2 mediated cell proliferation was detected by assaying BrdU incorporation into DNA using non-tumorigenic primary human bladder epithelial cells. An exemplary non-tumorigenic primary human bladder epithelial cell line is ATCC-PCS-420-010, which may be purchased from the American Type Culture Collection (ATCC) repository. Briefly, ATCC-PCS-420-010 cells were starved for 48 hours in low nutrient (0.5%) medium and then GLP-2 was added to the culture medium at the indicated concentrations and the cells were cultured for an additional 24 hours in the presence of GLP-2. As indicated in the timeline presented in FIG. 1, bromodeoxyuridine (BrdU) was added concurrently with the GLP-2.
To investigate further parameters affecting GLP-2 induced bladder epithelial cell proliferation, the duration of culturing in the presence of GLP-2 was extended. In this experimental protocol, ATCC-PCS-420-010 cells were starved for 48 hours in low nutrient (0.5%) medium and then GLP-2 was added to the culture medium at the indicated concentrations and the cells were cultured for ab additional 48 hours in the presence of GLP-2. As indicated in the timeline presented in FIG. 2, BrdU was added concurrently with the GLP-2.

[2] = in vivo; cited from earlier work
GLP-2R = biological target: T1, GLP-2R (Rattus norvegicus, UniProt Q9Z0W0); conditions: iv injected radiolabeled GLP-2, autoradiography; cited from earlier work
T1 construct: host or cells: Tissues of the living animal (kidneys, liver, gastrointestinal tract and others), endogenous receptor
T1 sequence (Q9Z0W0 1-550): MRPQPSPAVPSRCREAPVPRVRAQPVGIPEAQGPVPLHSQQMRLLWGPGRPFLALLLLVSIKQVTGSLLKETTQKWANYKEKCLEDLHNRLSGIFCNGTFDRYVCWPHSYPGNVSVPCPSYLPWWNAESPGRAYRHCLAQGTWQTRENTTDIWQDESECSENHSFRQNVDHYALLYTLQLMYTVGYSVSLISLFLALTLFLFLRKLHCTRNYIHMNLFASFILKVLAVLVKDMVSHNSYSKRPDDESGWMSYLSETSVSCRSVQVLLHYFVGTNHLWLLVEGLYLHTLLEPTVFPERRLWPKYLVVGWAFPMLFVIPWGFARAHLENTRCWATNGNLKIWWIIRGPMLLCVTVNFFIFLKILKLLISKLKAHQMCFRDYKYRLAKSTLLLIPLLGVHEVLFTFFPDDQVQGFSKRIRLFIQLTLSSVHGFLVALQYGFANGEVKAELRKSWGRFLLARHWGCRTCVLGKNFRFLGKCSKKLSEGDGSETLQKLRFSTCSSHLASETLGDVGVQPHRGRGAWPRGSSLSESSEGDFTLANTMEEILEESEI

intestinal epithelium = conditions: normal and treated rat inflammatory bowel disease models and ischemic reperfusion injured mice; cited from earlier work
[3] = phase IIB study; cited from earlier work
[4] = then cultured 48 hours with GLP-2, FIG. 2

Substance | DNA synthesis as measured by BrdU incorporation ([1]; then cultured 24 hours with GLP-2, FIG. 1) | DNA synthesis as measured by BrdU incorporation [1, 4] | GLP-2 concentration at which BrdU incorporation peaked (bell shaped curve) [1, 4] [µM] | half life in circulation [2] [min] | binding to submandibular gland, lung, brain, heart, adipose tissue, skeletal muscle, uterus, ovary, urinary bladder, adrenal gland, thyroid gland, or skin (GLP-2R) | tissues to which radiolabeled GLP-2 binds (GLP-2R) | effect on intestinal/mucosal mass and damage (intestinal epithelium) | efficacy in chemotherapy-induced diarrhea [3]
HADGSFSDEMNTILDNLAARDFINWLIQTKITD [GLP-2] | dose dependent increase in DNA synthesis | dose dependent increase in DNA synthesis | 0.1 | 3 to 7 | does not bind | binds predominantly to the kidneys, liver, and gastrointestinal tract | enhanced intestinal/mucosal mass and attenuated damage | –
elsiglutide | – | – | – | – | – | – | – | failed to reach statistical significance
